From US20170232031A1, “Inhibitors of Zika Virus” (Riboscience LLC, priority 2016, published 2017)

Assays:
[1] = target: T1, mitochondrial DNA polymerase pol γ (Homo sapiens, UniProt P54098); assay: Inhibition of mitochondrial DNA polymerase pol γ; type: biochemical; details: comparison nucleoside triphosphates; read-out: DNA pol γ mean IC50
T1 sequence (P54098 1-1239): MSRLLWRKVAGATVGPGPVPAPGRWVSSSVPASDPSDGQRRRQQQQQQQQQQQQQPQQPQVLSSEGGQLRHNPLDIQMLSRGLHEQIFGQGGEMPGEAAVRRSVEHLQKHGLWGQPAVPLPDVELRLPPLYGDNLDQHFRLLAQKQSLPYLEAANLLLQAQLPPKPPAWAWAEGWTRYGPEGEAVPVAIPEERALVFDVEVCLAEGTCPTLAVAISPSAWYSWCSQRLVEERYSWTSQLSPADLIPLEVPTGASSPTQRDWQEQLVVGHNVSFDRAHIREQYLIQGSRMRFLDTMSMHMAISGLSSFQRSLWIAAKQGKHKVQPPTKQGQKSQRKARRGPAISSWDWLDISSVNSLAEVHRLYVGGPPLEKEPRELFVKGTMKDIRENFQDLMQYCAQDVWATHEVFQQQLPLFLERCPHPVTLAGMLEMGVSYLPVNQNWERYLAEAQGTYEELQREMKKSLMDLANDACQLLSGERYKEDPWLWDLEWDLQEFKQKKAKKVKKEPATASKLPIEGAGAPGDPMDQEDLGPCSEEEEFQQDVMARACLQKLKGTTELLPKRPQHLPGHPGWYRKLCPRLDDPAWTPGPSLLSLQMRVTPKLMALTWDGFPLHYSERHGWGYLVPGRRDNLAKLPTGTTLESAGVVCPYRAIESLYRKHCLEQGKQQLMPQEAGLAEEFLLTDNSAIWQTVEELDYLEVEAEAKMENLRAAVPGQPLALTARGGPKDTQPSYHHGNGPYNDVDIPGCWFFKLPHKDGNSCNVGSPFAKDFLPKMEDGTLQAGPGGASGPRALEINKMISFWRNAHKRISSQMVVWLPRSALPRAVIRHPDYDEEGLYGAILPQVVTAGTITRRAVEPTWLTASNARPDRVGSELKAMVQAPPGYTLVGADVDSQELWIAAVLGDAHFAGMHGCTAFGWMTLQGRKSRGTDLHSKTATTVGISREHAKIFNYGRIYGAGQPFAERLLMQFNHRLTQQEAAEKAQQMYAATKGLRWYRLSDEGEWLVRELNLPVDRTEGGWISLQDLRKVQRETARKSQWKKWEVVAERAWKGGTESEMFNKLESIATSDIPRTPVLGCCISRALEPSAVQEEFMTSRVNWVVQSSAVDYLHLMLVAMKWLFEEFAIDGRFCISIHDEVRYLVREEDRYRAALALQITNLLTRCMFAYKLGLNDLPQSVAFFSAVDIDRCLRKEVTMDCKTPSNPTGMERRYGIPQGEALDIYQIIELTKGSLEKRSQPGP

[2] = test system: ZIK-V-RLuc; assay: Renilla Luciferase (Rluc) assay, % infection of ZIK-V-RLuc; type: cell-based; details: Zika virus, 72 h, read-out: IC50 Zika
Protocol: FIG. 1. Graph of % infection of ZIK-V-RLuc at 72 h.p.i. vs. IC50 concentration (μM) of compound I-36.
FIG. 2. Graph of % infection of ZIK-V-RLuc at 72 h.p.i. vs. IC50 concentration (μM) of compound I-37.
Single Epimers I-36 and I-37, of I-1 were tested in the Rluc assay at 72 h.p.i. for % inhibition vs. concentration of compound (FIGS. 1-2): […]

Compound | IC50 [1] [µM] | IC50 [2] [µM]
Cc1cn([C@H]2C[C@H](N=[N+]=[N-])[C@@H](COP(=O)(O)OP(=O)(O)OP(=O)(O)O)O2)c(=O)[nH]c1=O [AZT triphosphate] | 2.47 | 
C[C@H](N[P@@](=O)(OC[C@@]1(N=[N+]=[N-])O[C@@H](n2ccc(=O)[nH]c2=O)[C@H](O)[C@@H]1O)Oc1cccc2ccccc12)C(=O)OCc1ccccc1 [Compound I-36, benzyl ((R)-(((2R,3S,4R,5R)-2-azido-5-(2,4-dioxo-3,4-dihydropyrimidin-1(2H)-yl)-3,4-dihydroxytetrahydrofuran-2-yl)methoxy)(naphthalen-1-yloxy)phosphoryl)-L-alaninate] |  | 1.1
C[C@H](N[P@](=O)(OC[C@@]1(N=[N+]=[N-])O[C@@H](n2ccc(=O)[nH]c2=O)[C@H](O)[C@@H]1O)Oc1cccc2ccccc12)C(=O)OCc1ccccc1 [Compound I-37, benzyl ((S)-(((2R,3S,4R,5R)-2-azido-5-(2,4-dioxo-3,4-dihydropyrimidin-1(2H)-yl)-3,4-dihydroxytetrahydrofuran-2-yl)methoxy)(naphthalen-1-yloxy)phosphoryl)-L-alaninate] |  | 1.65
Nc1ccn([C@@H]2CS[C@H](COP(=O)(O)OP(=O)(O)OP(=O)(O)O)O2)c(=O)n1 [lamivudine triphosphate] | 149 | 
